Reference: US11845752B2, “Substituted imidazo[1,5-a]pyrazines for the treatment of hepatitis B” (ALIGOS THERAPEUTICS, INC., priority 2020, dated 2023)

Test system: HBV
Experiment: HBV-DNA antiviral assay using HepG2.117 cells (intracellular HBV DNA by qPCR)
Format: cell-based, HBV genotype D
Conditions: Hepatitis B virus, HepG2.117, 72 h, HBV DNA inhibition, 3 days incubation, read-out: EC50
Protocol: The following assay procedure describes the HBV antiviral assay, using HepG2.117 cells, which carry a stably integrated genotype D HBV genome under the control of a Tet-off promoter, and intracellular HBV DNA quantification as endpoint. Cell viability is assessed in parallel by measuring the intracellular ATP content using ATPlite (Perkin Elmer).
On day 0, HepG2.117 cells (which are maintained in routine cell culture with doxycycline present in the medium at a final concentration of 1 μg/mL) were seeded in 96-well plates (white with clear bottom) at a density of 2.0×10^4 cells/well (0.1 mL/well) in medium without doxycycline to induce pgRNA transcription and subsequent formation of HBV particles. The cells were incubated at 37° C. and 5% CO2.
On day 1, medium was removed from each well, the test articles were diluted in culture medium without doxcycyline and 100 μL was added to cell culture wells (9 concentrations, 4-fold dilution). For each plate, 6 untreated (merely DMSO) wells were included. The final concentration of DMSO in the culture medium was 2%. Each plate was prepared in duplicate (one for HBV DNA extraction, one for ATPlite measurement). The cells were incubated at 37° C. and 5% CO2 for 3 days.
On day 4, cell viability was assessed using ATPlite and cell lysates were prepared for HBV DNA extraction and subsequent quantification by qPCR.
Medium was removed from each well and 100 μL of 0.33% NP-40 in H2O was added to each well. Plates were sealed, incubated at 4° C. for 5 mins, vortexed extensively and centrifuged briefly. Next, 35 μL of lysate was added to 65 μL QuickExtract DNA Extraction Solution (Epicentre) in a PCR plate for each well. PCR plate was incubated at 65° C. for 6 mins, 98° C. for 2 mins and finally cooled to 4° C. HBV DNA was then quantified by qPCR with HBV-specific primers and probes as specified in Table 1 using the Bio-Rad SSOAdvanced Universal Probes Supermix on a CFX96 machine (Bio-Rad). The PCR cycle program consisted of 95° C. for 3 mins, followed by 40 cycles at 95° C. for 10 sec and 60° C. for 30 sec.
A DNA standard was prepared by dilution of an IDT gBlock corresponding to the amplicon with concentrations ranging from 10^2 to 10^8 copies/input (i.e. per 4 μL) and used to generate a standard curve by plotting Cq values vs. HBV DNA standard concentration. The quantity of HBV DNA in each sample was determined by interpolating from the standard curve.
Cell viability was calculated as follows: % Cell viability=(luminescence value of test sample)/(average luminescence value of 2% DMSO control)×100%. HBV DNA inhibition was calculated as follows: 100−(HBV DNA copy number of test sample)/(average HBV DNA copy number of 2% DMSO control)×100%. No normalization to entecavir was required due to the excellent dynamic window of this assay. The CC50, EC50 and EC90 values were determined by dose-response curves fitted using non-linear regression.

SMILES	EC50 [nM]
C[C@@H]1Cn2c(c(C(=O)NCc3ccccc3-c3ncccn3)n(-c3ccc(OC[C@H](O)C(F)(F)F)cc3)c2=O)CN1C(=O)c1ccc(Br)c(C(F)(F)F)c1 (mixture of isomers) [Compound 75a, (6RS)-7-[4-bromo-3-(trifluoromethyl)benzoyl]-6-methyl-3-oxo-N-[(2-pyrimidin-2-ylphenyl)methyl]-2-[4-[(2S)-3,3,3-trifluoro-2-hydroxy-propoxy]phenyl]-6,8-dihydro-5H-imidazo[1,5-a]pyrazine-1-carboxamide]	< 50
C[C@H]1Cn2c(c(C(=O)NCc3ccccc3-c3ncccn3)n(-c3ccc(OC[C@H](O)C(F)(F)F)cc3)c2=O)CN1C(=O)c1ccc(Br)c(C(F)(F)F)c1 (mixture of isomers) [Compound 75b, (6SR)-7-[4-bromo-3-(trifluoromethyl)benzoyl]-6-methyl-3-oxo-N-[(2-pyrimidin-2-ylphenyl)methyl]-2-[4-[(2S)-3,3,3-trifluoro-2-hydroxy-propoxy]phenyl]-6,8-dihydro-5H-imidazo[1,5-a]pyrazine-1-carboxamide]	50 to 500
C[C@@H]1Cn2c(c(C(=O)NCc3ccccc3-c3ccncn3)n(-c3ccc(N4CCN(C)[C@H](C(F)(F)F)C4)cc3)c2=O)CN1C(=O)c1ccc(Br)c(C(F)(F)F)c1 (mixture of isomers) [Compound 87a, (6RS)-7-[4-bromo-3-(trifluoromethyl)benzoyl]-6-methyl-2-[4-[(3S)-4-methyl-3-(trifluoromethyl)piperazin-1-yl]phenyl]-3-oxo-N-[(2-pyrimidin-4-ylphenyl)methyl]-6,8-dihydro-5H-imidazo[1,5-a]pyrazine-1-carboxamide]	50 to 500
C[C@H]1Cn2c(c(C(=O)NCc3ccccc3-c3ccncn3)n(-c3ccc(N4CCN(C)[C@H](C(F)(F)F)C4)cc3)c2=O)CN1C(=O)c1ccc(Br)c(C(F)(F)F)c1 (mixture of isomers) [Compound 87b, (6SR)-7-[4-bromo-3-(trifluoromethyl)benzoyl]-6-methyl-2-[4-[(3S)-4-methyl-3-(trifluoromethyl)piperazin-1-yl]phenyl]-3-oxo-N-[(2-pyrimidin-4-ylphenyl)methyl]-6,8-dihydro-5H-imidazo[1,5-a]pyrazine-1-carboxamide]	< 50
C[C@H](O)Cn1ncc2cc(-n3c(C(=O)NCc4ccccc4-c4ncccn4)c4n(c3=O)C[C@@H](C)N(C(=O)c3ccc(Br)c(C(F)(F)F)c3)C4)ccc21 (mixture of isomers) [Compound 94a, (6RS)-7-[4-bromo-3-(trifluoromethyl)benzoyl]-2-[1-[(2S)-2-hydroxypropyl]indazol-5-yl]-6-methyl-3-oxo-N-[(2-pyrimidin-2-ylphenyl)methyl]-6,8-dihydro-5H-imidazo[1,5-a]pyrazine-1-carboxamide]	50 to 500
C[C@H](O)Cn1ncc2cc(-n3c(C(=O)NCc4ccccc4-c4ncccn4)c4n(c3=O)C[C@H](C)N(C(=O)c3ccc(Br)c(C(F)(F)F)c3)C4)ccc21 (mixture of isomers) [Compound 94b, (6SR)-7-[4-bromo-3-(trifluoromethyl)benzoyl]-2-[1-[(2S)-2-hydroxypropyl]indazol-5-yl]-6-methyl-3-oxo-N-[(2-pyrimidin-2-ylphenyl)methyl]-6,8-dihydro-5H-imidazo[1,5-a]pyrazine-1-carboxamide]	50 to 500
C[C@H]1Cn2c(c(C(=O)NCc3ccccc3-c3ncccn3)n(-c3ccc4c(cnn4C[C@@H](O)C(F)(F)F)c3)c2=O)CN1C(=O)c1ccc(Br)c(C(F)(F)F)c1 (mixture of isomers) [Compound 101b, (6SR)-7-[4-bromo-3-(trifluoromethyl)benzoyl]-6-methyl-3-oxo-N-[(2-pyrimidin-2-ylphenyl)methyl]-2-[1-[(2R)-3,3,3-trifluoro-2-hydroxy-propyl]indazol-5-yl]-6,8-dihydro-5H-imidazo[1,5-a]pyrazine-1-carboxamide]	< 50
C[C@@H]1Cn2c(c(C(=O)NCc3ccccc3-c3ncccn3)n(-c3ccc4c(cnn4C[C@H](O)C(F)(F)F)c3)c2=O)CN1C(=O)c1ccc(Br)c(C(F)(F)F)c1 (mixture of isomers) [Compound 102a, (6RS)-7-[4-bromo-3-(trifluoromethyl)benzoyl]-6-methyl-3-oxo-N-[(2-pyrimidin-2-ylphenyl)methyl]-2-[1-[(2S)-3,3,3-trifluoro-2-hydroxy-propyl]indazol-5-yl]-6,8-dihydro-5H-imidazo[1,5-a]pyrazine-1-carboxamide]	50 to 500
C[C@H]1Cn2c(c(C(=O)NCc3ccccc3-c3ncccn3)n(-c3ccc4c(cnn4C[C@H](O)C(F)(F)F)c3)c2=O)CN1C(=O)c1ccc(Br)c(C(F)(F)F)c1 (mixture of isomers) [Compound 102b, (6SR)-7-[4-bromo-3-(trifluoromethyl)benzoyl]-6-methyl-3-oxo-N-[(2-pyrimidin-2-ylphenyl)methyl]-2-[1-[(2S)-3,3,3-trifluoro-2-hydroxy-propyl]indazol-5-yl]-6,8-dihydro-5H-imidazo[1,5-a]pyrazine-1-carboxamide]	< 50
C[C@H]1Cn2c(c(C(=O)NCc3ccccc3-c3ncccn3)n(-c3ccc4nn(C[C@@H](O)C(F)(F)F)cc4c3)c2=O)CN1C(=O)c1ccc(Br)c(C(F)(F)F)c1 (mixture of isomers) [Compound 105b, (6SR)-7-[4-bromo-3-(trifluoromethyl)benzoyl]-6-methyl-3-oxo-N-[(2-pyrimidin-2-ylphenyl)methyl]-2-[2-[(2R)-3,3,3-trifluoro-2-hydroxy-propyl]indazol-5-yl]-6,8-dihydro-5H-imidazo[1,5-a]pyrazine-1-carboxamide]	50 to 500
C[C@@H]1Cn2c(c(C(=O)NCc3ccccc3-c3ncccn3)n(-c3ccc4nn(C[C@H](O)C(F)(F)F)cc4c3)c2=O)CN1C(=O)c1ccc(Br)c(C(F)(F)F)c1 (mixture of isomers) [Compound 107a, (6RS)-7-[4-bromo-3-(trifluoromethyl)benzoyl]-6-methyl-3-oxo-N-[(2-pyrimidin-2-ylphenyl)methyl]-2-[2-[(2S)-3,3,3-trifluoro-2-hydroxy-propyl]indazol-5-yl]-6,8-dihydro-5H-imidazo[1,5-a]pyrazine-1-carboxamide]	50 to 500
C[C@H]1Cn2c(c(C(=O)NCc3ccccc3-c3ncccn3)n(-c3ccc4nn(C[C@H](O)C(F)(F)F)cc4c3)c2=O)CN1C(=O)c1ccc(Br)c(C(F)(F)F)c1 (mixture of isomers) [Compound 107b, (6SR)-7-[4-bromo-3-(trifluoromethyl)benzoyl]-6-methyl-3-oxo-N-[(2-pyrimidin-2-ylphenyl)methyl]-2-[2-[(2S)-3,3,3-trifluoro-2-hydroxy-propyl]indazol-5-yl]-6,8-dihydro-5H-imidazo[1,5-a]pyrazine-1-carboxamide]	50 to 500
C[C@@H]1Cn2c(c(C(=O)NCc3ccccc3-c3ccn(CC(F)(F)F)n3)n(-c3ccc4c(cnn4C[C@@H](C)O)c3)c2=O)CN1C(=O)c1ccc(Br)c(C(F)(F)F)c1 (mixture of isomers) [Compound 111a, (6RS)-7-[4-bromo-3-(trifluoromethyl)benzoyl]-2-[1-[(2R)-2-hydroxypropyl]indazol-5-yl]-6-methyl-3-oxo-N-[[2-[1-(2,2,2-trifluoroethyl)pyrazol-3-yl]phenyl]methyl]-6,8-dihydro-5H-imidazo[1,5-a]pyrazine-1-carboxamide]	50 to 500
C[C@@H](O)Cn1ncc2cc(-n3c(C(=O)NCc4ccccc4-c4ccn(CC(F)(F)F)n4)c4n(c3=O)C[C@H](C)N(C(=O)c3ccc(Br)c(C(F)(F)F)c3)C4)ccc21 (mixture of isomers) [Compound 111b, (6SR)-7-[4-bromo-3-(trifluoromethyl)benzoyl]-2-[1-[(2R)-2-hydroxypropyl]indazol-5-yl]-6-methyl-3-oxo-N-[[2-[1-(2,2,2-trifluoroethyl)pyrazol-3-yl]phenyl]methyl]-6,8-dihydro-5H-imidazo[1,5-a]pyrazine-1-carboxamide]	50 to 500
CNc1ccnc(-c2ccccc2CNC(=O)c2c3n(c(=O)n2-c2ccc(OC4CC4)cc2)C[C@H](C)N(C(=O)c2ccc(Br)c(Cl)c2)C3)n1 (racemic) [Compound 26b]	< 50
